Experimental data from US8273880B2, “Pyrazole compounds with inhibitory activity against ROS kinase” (Korea Institute of Science and Technology, priority 2009, dated 2012).
Entries after “also recorded” stand apart in the source; their conditions may differ. Where two headings read alike, the source gives them in different places.

Legend:
45 different kinases = test: Kinase selectivity from screening over 45 different kinases; type: biochemical
Protocol: (§1) Kinase screening was performed using a “HotSpot” assay platform commercially available from Reaction Biology Corporation. For this kinase screening, reaction buffers were based on 20 mM Hepes (pH 7.5), 10 mM MgCl2, 1 mM EGTA, 0.02% Brij35, 0.02 mg/mL BSA, 0.1 mM Na3VO4, 2 mM DTT, and 1% DMSO, with supplementary factors necessary for respective kinase reactions added thereto. In each enzyme reaction, […] of each kinase was used together with a fresh reaction buffer and appropriate supplementary factors. A solution of each compound in DMSO was added in a suitable concentration to the reaction buffer. Kinase reaction started with the introduction of […] (specific activity […]) and continued for 2 hours at room temperature.
1) Screening of Compounds Over 45 Different Kinases
Each compound was tested twice at a single dose concentration of 10 μM. […] The reaction was performed with 10 μM ATP.

ROS kinase [1] = biological target: T1, ROS kinase (Homo sapiens, UniProt P08922); test: ROS kinase screening (HotSpot, IC50 mode); type: biochemical; parameters: purchased Reaction Biology Corporation; settings: 10-dose IC50 mode starting from 20 μM; 10 μM ATP; read-out: Inhibitory Activity against ROS (IC50)
Protocol: as §1
The reaction was performed with 10 μM ATP.

ROS kinase [2] = biological target: T1, ROS kinase; parameters: literature Reaction Biology Corporation; settings: Data from Reaction Biology corporation (website); read-out: Inhibitory Activity against ROS (IC50); cited from earlier work

T1 sequence (P08922 28-2347): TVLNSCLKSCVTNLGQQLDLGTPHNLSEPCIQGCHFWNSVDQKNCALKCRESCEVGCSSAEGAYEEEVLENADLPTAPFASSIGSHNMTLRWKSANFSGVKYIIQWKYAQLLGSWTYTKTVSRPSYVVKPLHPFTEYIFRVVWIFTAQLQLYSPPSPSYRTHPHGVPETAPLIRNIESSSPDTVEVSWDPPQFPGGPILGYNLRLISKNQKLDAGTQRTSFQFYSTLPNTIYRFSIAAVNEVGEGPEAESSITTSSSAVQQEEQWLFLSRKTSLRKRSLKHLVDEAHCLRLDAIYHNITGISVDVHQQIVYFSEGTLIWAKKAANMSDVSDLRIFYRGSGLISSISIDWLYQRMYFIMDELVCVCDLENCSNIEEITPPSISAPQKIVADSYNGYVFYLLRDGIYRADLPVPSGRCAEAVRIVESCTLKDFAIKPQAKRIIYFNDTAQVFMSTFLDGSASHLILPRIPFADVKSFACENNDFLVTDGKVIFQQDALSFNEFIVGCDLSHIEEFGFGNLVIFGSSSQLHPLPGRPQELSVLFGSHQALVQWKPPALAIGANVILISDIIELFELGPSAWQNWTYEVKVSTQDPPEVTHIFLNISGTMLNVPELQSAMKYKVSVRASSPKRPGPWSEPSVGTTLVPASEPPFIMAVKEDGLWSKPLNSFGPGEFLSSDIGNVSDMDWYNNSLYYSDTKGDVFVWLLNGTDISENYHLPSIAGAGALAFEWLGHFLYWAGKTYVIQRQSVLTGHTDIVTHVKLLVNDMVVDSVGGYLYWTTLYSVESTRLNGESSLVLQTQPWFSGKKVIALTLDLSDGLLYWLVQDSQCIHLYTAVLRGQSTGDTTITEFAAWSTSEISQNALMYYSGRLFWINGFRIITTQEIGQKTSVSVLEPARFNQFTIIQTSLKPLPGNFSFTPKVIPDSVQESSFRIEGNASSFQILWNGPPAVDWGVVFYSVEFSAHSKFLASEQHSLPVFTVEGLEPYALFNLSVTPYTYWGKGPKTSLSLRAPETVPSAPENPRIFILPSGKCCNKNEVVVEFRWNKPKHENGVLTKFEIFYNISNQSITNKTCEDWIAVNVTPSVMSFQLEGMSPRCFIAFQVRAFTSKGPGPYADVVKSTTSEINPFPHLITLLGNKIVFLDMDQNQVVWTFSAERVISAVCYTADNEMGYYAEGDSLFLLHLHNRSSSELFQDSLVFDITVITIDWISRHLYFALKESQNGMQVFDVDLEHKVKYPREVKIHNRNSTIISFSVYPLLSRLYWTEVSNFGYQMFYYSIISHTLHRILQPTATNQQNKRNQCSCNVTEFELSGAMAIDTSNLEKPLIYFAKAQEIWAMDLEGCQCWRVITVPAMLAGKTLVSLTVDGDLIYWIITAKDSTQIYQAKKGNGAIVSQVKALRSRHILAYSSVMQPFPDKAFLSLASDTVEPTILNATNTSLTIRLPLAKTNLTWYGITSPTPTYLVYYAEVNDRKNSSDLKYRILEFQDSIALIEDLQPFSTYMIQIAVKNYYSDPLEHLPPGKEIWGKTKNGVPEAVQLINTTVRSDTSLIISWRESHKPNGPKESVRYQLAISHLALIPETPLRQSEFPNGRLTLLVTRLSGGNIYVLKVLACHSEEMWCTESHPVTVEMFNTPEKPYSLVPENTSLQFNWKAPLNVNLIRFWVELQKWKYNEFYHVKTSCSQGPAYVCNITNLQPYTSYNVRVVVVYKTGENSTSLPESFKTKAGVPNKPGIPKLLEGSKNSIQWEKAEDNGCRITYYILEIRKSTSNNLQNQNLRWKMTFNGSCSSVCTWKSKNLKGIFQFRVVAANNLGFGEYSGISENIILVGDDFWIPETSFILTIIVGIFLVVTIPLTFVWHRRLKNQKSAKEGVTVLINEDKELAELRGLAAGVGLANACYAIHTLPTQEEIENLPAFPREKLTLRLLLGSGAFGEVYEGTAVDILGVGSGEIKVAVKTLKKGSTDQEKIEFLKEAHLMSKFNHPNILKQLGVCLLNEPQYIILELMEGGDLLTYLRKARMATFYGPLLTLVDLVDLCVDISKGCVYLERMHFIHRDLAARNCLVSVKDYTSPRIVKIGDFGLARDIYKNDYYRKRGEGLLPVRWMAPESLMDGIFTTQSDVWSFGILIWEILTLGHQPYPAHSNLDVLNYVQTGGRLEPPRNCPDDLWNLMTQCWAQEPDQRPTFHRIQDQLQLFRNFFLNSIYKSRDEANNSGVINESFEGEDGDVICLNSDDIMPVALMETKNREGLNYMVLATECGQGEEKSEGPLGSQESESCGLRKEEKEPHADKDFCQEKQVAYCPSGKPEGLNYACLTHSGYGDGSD

Cc1cc(O)cc(-c2nn(CC#N)cc2-c2ccnc(-c3cccnc3)c2)c1 [Example 44, [3-(3-hydroxy-5-methylphenyl)-4-(2-(pyridin-3-yl)pyridin-4-yl)-pyrazol-1-yl]acetonitrile]
Notes (selectivity for ROS) (45 different kinases): ROS selectivity; also recorded: Selective for ROS | IC50 (ROS kinase [1]): 0.209 µM

PDGFR I-III
IC50 (ROS kinase [2]): 48 µM
